Among the data in ChEMBL document CHEMBL4831516, “Development of Membrane-Active Honokiol/Magnolol Amphiphiles as Potent Antibacterial Agents against Methicillin-Resistant Staphylococcus aureus (MRSA)” (J Med Chem, 2021) are MIC, HC50 and selectivity ratio values, retold here.

Data set [1] has as its system Salmonella enterica. In words: Antibacterial activity against Salmonella enterica 8389 assessed as inhibition of visible growth incubated for 16 to 18 hrs by CLSI method. Type of data set: functional. To be noted: time 16-18 hrs, read-out: MIC100.
For data set [2], the system named is Staphylococcus aureus. In words: Antibacterial activity against methicillin-resistant Staphylococcus aureus clinical isolate M-19 assessed as inhibition of visible growth incubated for 16 to 18 hrs by CLSI method. In kind it is functional. Conditions: time 16-18 hrs, read-out: MIC100.
Data set [3] has as its system Staphylococcus aureus. The data set is described as follows: Antibacterial activity against methicillin-resistant Staphylococcus aureus clinical isolate M-15 assessed as inhibition of visible growth incubated for 16 to 18 hrs by CLSI method. Type of data set: functional. Conditions: time 16-18 hrs, read-out: MIC100.
Data set [4] deals with Staphylococcus aureus. The data set is described as follows: Antibacterial activity against Staphylococcus aureus ATCC29213 assessed as inhibition of visible growth incubated for 16 to 18 hrs by CLSI method. In kind it is functional. To be noted: time 16-18 hrs, read-out: MIC100.
Data set [5] deals with Staphylococcus aureus. In words: Antibacterial activity against methicillin-resistant Staphylococcus aureus clinical isolate M-16 assessed as inhibition of visible growth incubated for 16 to 18 hrs by CLSI method. Conditions: time 16-18 hrs, read-out: MIC100. Type of data set: functional.
For data set [6], the system named is Staphylococcus aureus. In words: Antibacterial activity against methicillin-resistant Staphylococcus aureus clinical isolate M-13 assessed as inhibition of visible growth incubated for 16 to 18 hrs by CLSI method. In kind it is functional. To be noted: time 16-18 hrs, read-out: MIC100.
The next data set relates to Escherichia coli. In words: Antibacterial activity against Escherichia coli ATCC25922 assessed as inhibition of visible growth incubated for 16 to 18 hrs by CLSI method. In kind it is functional. To be noted: time 16-18 hrs, read-out: MIC100.
The test system of data set [7] is Staphylococcus aureus. In words: Antibacterial activity against methicillin-resistant Staphylococcus aureus clinical isolate M-14 assessed as inhibition of visible growth incubated for 16 to 18 hrs by CLSI method. To be noted: time 16-18 hrs, read-out: MIC100. Type of data set: functional.
Data set [8] concerns Staphylococcus aureus. The data set is described as follows: Antibacterial activity against methicillin-resistant Staphylococcus aureus clinical isolate M-18 assessed as inhibition of visible growth incubated for 16 to 18 hrs by CLSI method. Type of data set: functional. Conditions: time 16-18 hrs, read-out: MIC100.
A short description of data set [9]: Hemolytic activity in sheep RBC assessed as hemolysis incubated for 1 hr. In kind it is ADME, cell-based, Ovis aries, Erythrocyte. Conditions: sheep red blood cells (erythrocytes).
Data set [10] concerns Staphylococcus aureus. In words: Antibacterial activity against methicillin-resistant Staphylococcus aureus clinical isolate M-17 assessed as inhibition of visible growth incubated for 16 to 18 hrs by CLSI method. To be noted: time 16-18 hrs, read-out: MIC100. In kind it is functional.
Data set [11] relates to Salmonella enterica. In words: Antibacterial activity against Salmonella enterica 349812 assessed as inhibition of visible growth incubated for 16 to 18 hrs by CLSI method. To be noted: time 16-18 hrs, read-out: MIC100. In kind it is functional.
Data set [12] concerns Staphylococcus aureus. In words: Antibacterial activity against methicillin-resistant Staphylococcus aureus clinical isolate M-11 assessed as inhibition of visible growth incubated for 16 to 18 hrs by CLSI method. Conditions: time 16-18 hrs, read-out: MIC100. In kind it is functional.
A further data set deals with Enterococcus faecalis. The data set is described as follows: Antibacterial activity against Enterococcus faecalis ATCC29212 assessed as inhibition of visible growth incubated for 16 to 18 hrs by CLSI method. In kind it is functional. To be noted: time 16-18 hrs, read-out: MIC100.
Data set [13] concerns Stenotrophomonas maltophilia. In words: Antibacterial activity against Stenotrophomonas maltophilia assessed as inhibition of visible growth incubated for 16 to 18 hrs by CLSI method. In kind it is functional. To be noted: time 16-18 hrs, read-out: MIC100.
A short description of data set [14]: Selectivity index, HC50 for hemolytic activity in sheep RBC to MIC for antibacterial activity against Staphylococcus aureus ATCC29213. Type of data set: toxicity. To be noted: sheep red blood cells (erythrocytes), read-out: Selectivity Index.
For data set [15], the system named is Staphylococcus aureus. In words: Antibacterial activity against methicillin-resistant Staphylococcus aureus clinical isolate M-20 assessed as inhibition of visible growth incubated for 16 to 18 hrs by CLSI method. In kind it is functional. Conditions: time 16-18 hrs, read-out: MIC100.
Data set [16] concerns Staphylococcus aureus. The data set is described as follows: Antibacterial activity against methicillin-resistant Staphylococcus aureus clinical isolate M-12 assessed as inhibition of visible growth incubated for 16 to 18 hrs by CLSI method. In kind it is functional. Conditions: time 16-18 hrs, read-out: MIC100.
The next data set relates to Micrococcus luteus. In words: Antibacterial activity against Micrococcus luteus assessed as inhibition of visible growth incubated for 16 to 18 hrs by CLSI method. To be noted: time 16-18 hrs, read-out: MIC100. In kind it is functional.
For another data set, the system named is Bacillus subtilis. The data set is described as follows: Antibacterial activity against Bacillus subtilis assessed as inhibition of visible growth incubated for 16 to 18 hrs by CLSI method. In kind it is functional. Conditions: time 16-18 hrs, read-out: MIC100.

The HC50 is the concentration that lyses half of the red blood cells. Regarding `C=CCc1ccc(OCCC[N+](C)(C)CC(=O)N(CCCC)CCCC)c(-c2ccc(OCCC[N+](C)(C)CC(=O)N(CCCC)CCCC)c(CC=C)c2)c1.[Br-].[Br-]`, the MIC came to 8 µg/mL with Salmonella enterica [1]; 8 µg/mL in the data set on Staphylococcus aureus [2]; 8 µg/mL with Staphylococcus aureus [3]; 4 µg/mL in the data set with Staphylococcus aureus [4]; 8 µg/mL in the data set on Staphylococcus aureus [5]; 8 µg/mL in the data set with Staphylococcus aureus [6]. In addition, the MIC in the data set on Escherichia coli is 4 µg/mL; in the data set with Staphylococcus aureus [7], 8 µg/mL; with Staphylococcus aureus [8], 8 µg/mL; with Staphylococcus aureus [10], 8 µg/mL; in the data set on Salmonella enterica [11], 16 µg/mL; in the data set with Staphylococcus aureus [12] it was 8 µg/mL. Also, the MIC is 2 µg/mL in the data set on Enterococcus faecalis; 4 µg/mL in data set [13]; 8 µg/mL in the data set on Staphylococcus aureus [15]; 8 µg/mL with Staphylococcus aureus [16]; 1 µg/mL with Micrococcus luteus; 2 µg/mL in the data set on Bacillus subtilis. The HC50 at 1 h in [9] was found to be 1080 µg/mL. Besides, in data set [14], the selectivity ratio was found to be 270.
`C=CCc1ccc(O)c(-c2cc(CC=C)ccc2OCCCC[N+](C)(C)CC(=O)N(CCCC)CCCC)c1.[Br-]`: the MIC with Salmonella enterica [1] was 64 µg/mL; in the data set with Staphylococcus aureus [2], 8 µg/mL; in the data set with Staphylococcus aureus [3] it was 8 µg/mL; with Staphylococcus aureus [4] it was 2 µg/mL; in the data set with Staphylococcus aureus [5], 8 µg/mL; with Staphylococcus aureus [6], 8 µg/mL. The MIC in the data set on Escherichia coli turned out to be 8 µg/mL; in the data set on Staphylococcus aureus [7] it was 8 µg/mL; with Staphylococcus aureus [8], 8 µg/mL; with Staphylococcus aureus [10] it was 8 µg/mL; with Salmonella enterica [11], 32 µg/mL; in the data set with Staphylococcus aureus [12], 16 µg/mL. The MIC in the data set with Enterococcus faecalis is 4 µg/mL; in data set [13] it was 32 µg/mL; with Staphylococcus aureus [15], 8 µg/mL; in the data set on Staphylococcus aureus [16], 16 µg/mL; in the data set on Micrococcus luteus, 2 µg/mL; with Bacillus subtilis it was 1 µg/mL. Further, the HC50 at 1 h in data set [9] is 712 µg/mL. Besides, the selectivity ratio in [14] was determined as 356.
As for `C=CCc1ccc(OCCCC[N+](C)(C)CC(=O)NCC)c(-c2ccc(OCCCC[N+](C)(C)CC(=O)NCC)c(CC=C)c2)c1.[Br-].[Br-]`, the MIC with Salmonella enterica [1] was 32 µg/mL; with Staphylococcus aureus [2], 8 µg/mL; with Staphylococcus aureus [3], 8 µg/mL; in the data set on Staphylococcus aureus [4], 2 µg/mL; in the data set on Staphylococcus aureus [5], 16 µg/mL; with Staphylococcus aureus [6] it was 8 µg/mL. In addition, the MIC came out at 4 µg/mL in the data set on Escherichia coli; 8 µg/mL in the data set with Staphylococcus aureus [7]; 8 µg/mL in the data set on Staphylococcus aureus [8]; 8 µg/mL in the data set with Staphylococcus aureus [10]; 8 µg/mL in the data set on Salmonella enterica [11]; 16 µg/mL with Staphylococcus aureus [12]. The MIC in the data set on Enterococcus faecalis is 2 µg/mL; in [13], 8 µg/mL; with Staphylococcus aureus [15], 8 µg/mL; in the data set on Staphylococcus aureus [16] it was 8 µg/mL; in the data set with Micrococcus luteus, 8 µg/mL; in the data set on Bacillus subtilis it was 4 µg/mL. In addition, in data set [9], the concentration for 50% haemolysis (HC50) at 1 h is 883 µg/mL. The selectivity ratio in data set [14] came to 442.
Consider `C=CCc1ccc(O)c(-c2cc(CC=C)ccc2OCCC[N+](C)(C)CC(=O)NCCCC)c1.[Br-]`, for which the MIC with Salmonella enterica [1] amounted to 32 µg/mL; in the data set with Staphylococcus aureus [2], 4 µg/mL; in the data set on Staphylococcus aureus [3], 4 µg/mL; with Staphylococcus aureus [4] it was 2 µg/mL; with Staphylococcus aureus [5], 4 µg/mL; with Staphylococcus aureus [6], 4 µg/mL. Further, the MIC in the data set with Escherichia coli turned out to be 8 µg/mL; in the data set on Staphylococcus aureus [7], 4 µg/mL; in the data set with Staphylococcus aureus [8] it was 4 µg/mL; with Staphylococcus aureus [10], 4 µg/mL; in the data set on Salmonella enterica [11], 32 µg/mL; with Staphylococcus aureus [12] it was 8 µg/mL. Also, the MIC with Enterococcus faecalis was found to be 4 µg/mL; in data set [13], 32 µg/mL; in the data set on Staphylococcus aureus [15], 4 µg/mL; with Staphylococcus aureus [16], 4 µg/mL; in the data set on Micrococcus luteus it was 1 µg/mL; in the data set on Bacillus subtilis, 1 µg/mL. Moreover, the HC50 at 1 h in data set [9] stood at 596 µg/mL. For the same molecule, in [14], the selectivity ratio came to 298.
In the case of `C=CCc1ccc(O)c(-c2cc(CC=C)ccc2OCCCC[N+](C)(C)CC(=O)NCCCCCC)c1.[Br-]`, the MIC with Salmonella enterica [1] was found to be 64 µg/mL; with Staphylococcus aureus [2], 8 µg/mL; in the data set with Staphylococcus aureus [3] it was 8 µg/mL; in the data set with Staphylococcus aureus [4], 2 µg/mL; with Staphylococcus aureus [5], 4 µg/mL; with Staphylococcus aureus [6], 8 µg/mL. Besides, the MIC in the data set with Escherichia coli is 16 µg/mL; with Staphylococcus aureus [7], 8 µg/mL; with Staphylococcus aureus [8], 4 µg/mL; with Staphylococcus aureus [10] it was 4 µg/mL; with Salmonella enterica [11], 32 µg/mL; in the data set with Staphylococcus aureus [12], 8 µg/mL. Also, the MIC amounted to 4 µg/mL with Enterococcus faecalis; 32 µg/mL in [13]; 4 µg/mL with Staphylococcus aureus [15]; 8 µg/mL in the data set on Staphylococcus aureus [16]; 2 µg/mL with Micrococcus luteus; 1 µg/mL with Bacillus subtilis. In addition, in data set [9], the HC50 at 1 h was determined as 698 µg/mL. Besides, the selectivity ratio in data set [14] turned out to be 349.
